Source: ChEMBL document CHEMBL5131478, “3,5-Bis(trifluoromethyl)phenylsulfonamides, a novel pancreatic cancer active lead. Investigation of the terminal aromatic moiety” (Bioorg Med Chem Lett, 2022)

Columns and labels:
[1] = tested on: MIA PaCa-2; experiment: Growth inhibition of human MIA PaCa-2 cells incubated for 72 hrs by MTT assay; assay type: functional
[2] = tested on: A2780; experiment: Growth inhibition of human A2780 cells incubated for 72 hrs by MTT assay; assay type: functional
[3] = tested on: HPAC; experiment: Growth inhibition of human HPAC cells incubated for 72 hrs by MTT assay; assay type: functional
[4] = tested on: Capan-2; experiment: Growth inhibition of human Capan-2 cells incubated for 72 hrs by MTT assay; assay type: functional
[5] = tested on: ASPC1; experiment: Growth inhibition of human ASPC1 cells incubated for 72 hrs by MTT assay; assay type: functional
[6] = tested on: BE(2)-C; experiment: Growth inhibition of human BE2C cells incubated for 72 hrs by MTT assay; assay type: functional
[7] = tested on: PANC-1; experiment: Growth inhibition of human PANC-1 cells incubated for 72 hrs by MTT assay; assay type: functional
[8] = tested on: MCF7; experiment: Growth inhibition of human MCF7 cells incubated for 72 hrs by MTT assay; assay type: functional
[9] = tested on: BXPC-3; experiment: Growth inhibition of human BXPC-3 cells incubated for 72 hrs by MTT assay; assay type: functional
[10] = tested on: HT-29; experiment: Growth inhibition of human HT-29 cells incubated for 72 hrs by MTT assay; assay type: functional
[11] = Growth inhibition of human MCF-10A cells incubated for 72 hrs by MTT assay; assay type: toxicity, cell-based

| SMILES | GI50 [1] | GI50 [2] | GI50 [3] | GI50 [4] | GI50 [5] | GI50 [6] | GI50 [7] | GI50 [8] | GI50 [9] | GI50 [10] | GI50 at 72 h [11] |
| --- | --- | --- | --- | --- | --- | --- | --- | --- | --- | --- | --- |
| O=[N+]([O-])c1ccccc1S(=O)(=O)NCCCCCCNCc1ccc(Br)cc1 | 11.7 µM |  |  |  |  |  |  |  |  |  |  |
| CN(CCCNS(=O)(=O)c1cc(C(F)(F)F)cc(C(F)(F)F)c1)Cc1ccccc1 | 33 µM | 28000 nM | 30000 nM | 46 µM | 51 µM | 28 µM | > 50 µM | 16000 nM | 39000 nM | > 50 µM | 26 µM |
| O=S(=O)(NCCCNCc1cccc(Cl)c1)c1cc(C(F)(F)F)cc(C(F)(F)F)c1 | 4.4 µM | 2200 nM | 2700 nM | 8 µM | 5.9 µM | 6.9 µM | 12 µM | 2600 nM | 3800 nM | 14 µM | 7 µM |
| O=S(=O)(NCCCNCC1COc2ccccc2O1)c1cc(C(F)(F)F)cc(C(F)(F)F)c1 (centres undefined) | 2.6 µM | 1500 nM | 2700 nM | 2.5 µM | 2.9 µM | 2.8 µM | 3.4 µM | 2500 nM | 1200 nM | 2.2 µM | 3.2 µM |
| O=S(=O)(NCCCCCCNCc1ccc(Br)cc1)c1ccc2c(c1)OCC2 | 13 µM |  |  |  |  |  |  |  |  |  |  |
| CCCCc1ccc(S(=O)(=O)NCCCCCCNCc2ccc(Br)cc2)cc1 | 5.7 µM |  |  |  |  |  |  |  |  |  |  |
| O=S(=O)(NCCCCCCNCc1ccc(Br)cc1)c1cc(Cl)cc(Cl)c1 | 12 µM |  |  |  |  |  |  |  |  |  |  |
| O=S(=O)(NCCCNCc1ccc(Cl)c(C(F)(F)F)c1)c1cc(C(F)(F)F)cc(C(F)(F)F)c1 | 7.4 µM | 5900 nM | 3000 nM | 9.1 µM | 9.6 µM | 8.6 µM | 10 µM | 3500 nM | 7800 nM | 11 µM | 7.9 µM |
| O=S(=O)(NCCCNCc1ccccc1)c1cc(C(F)(F)F)cc(C(F)(F)F)c1 | 11 µM | 4900 nM | 3200 nM | 14 µM | 13 µM | 12 µM | 16 µM | 3000 nM | 13000 nM | 15 µM | 13 µM |
| O=S(=O)(NCCCCCCNCc1ccc(Br)cc1)c1cccc(C(F)(F)F)c1 | 5.97 µM |  |  |  |  |  |  |  |  |  |  |
| O=S(=O)(NCCCCCCNCc1ccc(Br)cc1)c1c(Cl)cc(C(F)(F)F)cc1Cl | 5.67 µM |  |  |  |  |  |  |  |  |  |  |
| Cc1ccc(C)c(S(=O)(=O)NCCCCCCNCc2ccc(Br)cc2)c1 | 12 µM |  |  |  |  |  |  |  |  |  |  |
| O=S(=O)(NCCCNCc1ccccc1Cl)c1cc(C(F)(F)F)cc(C(F)(F)F)c1 | 11 µM | 9300 nM | 10000 nM | 13 µM | 13 µM | 15 µM | 15 µM | 8800 nM | 11000 nM | 20 µM | 11 µM |
| O=S(=O)(NCCCCCCNCc1ccc(Br)cc1)c1cc(C(F)(F)F)cc(C(F)(F)F)c1 | 2.97 µM |  |  |  |  |  |  |  |  |  |  |
| O=S(=O)(NCCCNCc1ccc(Cl)cc1)c1cc(C(F)(F)F)cc(C(F)(F)F)c1 | 2.8 µM | 1800 nM | 2800 nM | 2.7 µM | 3 µM | 2.9 µM | 4.9 µM | 2400 nM | 1600 nM | 2.8 µM | 2.3 µM |
| O=S(=O)(NCCCNCc1cccc2ccccc12)c1cc(C(F)(F)F)cc(C(F)(F)F)c1 | 2.8 µM | 3100 nM | 2400 nM | 2.7 µM | 21 µM | 2.7 µM | 2.7 µM | 1400 nM | 2700 nM | 2.6 µM | 3.2 µM |
| O=[N+]([O-])c1ccc(S(=O)(=O)NCCCCCCNCc2ccc(Br)cc2)cc1 | 9.8 µM |  |  |  |  |  |  |  |  |  |  |

| SMILES | GI50 [1] | GI50 [2] | GI50 [3] | GI50 [4] | GI50 [5] | GI50 [6] | GI50 [7] | GI50 [8] | GI50 [9] | GI50 [10] | GI50 at 72 h [11] |
| --- | --- | --- | --- | --- | --- | --- | --- | --- | --- | --- | --- |
| COc1ccc(CNCCCNS(=O)(=O)c2cc(C(F)(F)F)cc(C(F)(F)F)c2)cc1 | 2.5 µM | 1700 nM | 3000 nM | 2.4 µM | 2.8 µM | 2.8 µM | 11 µM | 2500 nM | 1300 nM | 2.9 µM | 3.1 µM |
| COc1ccc(S(=O)(=O)NCCCCCCNCc2ccc(Br)cc2)cc1 | 13 µM |  |  |  |  |  |  |  |  |  |  |
| O=S(=O)(NCCCCCCNCc1ccc(Br)cc1)c1ccccc1F | 13.3 µM |  |  |  |  |  |  |  |  |  |  |
| COc1cccc(CNCCCNS(=O)(=O)c2cc(C(F)(F)F)cc(C(F)(F)F)c2)c1 | 3.4 µM | 1600 nM | 2400 nM | 6.4 µM | 3.8 µM | 4.5 µM | 10 µM | 2400 nM | 1700 nM | 10 µM | 6.6 µM |
| O=S(=O)(NCCNCc1cccc2ccccc12)c1cc(C(F)(F)F)cc(C(F)(F)F)c1 | 26 µM | 21000 nM | 18000 nM | 21 µM | 22 µM | 19 µM | 24 µM | 18000 nM | 23000 nM | 16 µM | 22 µM |
| CC(C)c1ccc(S(=O)(=O)NCCCCCCNCc2ccc(Br)cc2)cc1 | 5.73 µM |  |  |  |  |  |  |  |  |  |  |
| O=S(=O)(NCCCCCCNCc1ccc(Br)cc1)c1ccc2ccsc2c1 | 6 µM |  |  |  |  |  |  |  |  |  |  |
| Cc1ccc(S(=O)(=O)NCCCCCCNCc2ccc(Br)cc2)cc1 | 12.3 µM |  |  |  |  |  |  |  |  |  |  |
| O=S(=O)(NCCCCCCNCc1ccc(Br)cc1)c1ccc(Cl)cc1 | 5.9 µM |  |  |  |  |  |  |  |  |  |  |
| O=S(=O)(NCCCCNCc1ccc(Br)cc1)c1cc(C(F)(F)F)cc(C(F)(F)F)c1 | 2.1 µM | 2100 nM | 2000 nM | 1.9 µM | 2.9 µM | 2.2 µM | 2.2 µM | 1500 nM | 1700 nM | 1.6 µM | 3.2 µM |
| O=S(=O)(NCCCCCCNCc1ccc(Br)cc1)c1ccc(C(F)(F)F)cc1 | 3.83 µM |  |  |  |  |  |  |  |  |  |  |
| O=S(=O)(NCCCNCc1ccc(C(F)(F)F)cc1)c1cc(C(F)(F)F)cc(C(F)(F)F)c1 | 2.5 µM | 2800 nM | 2700 nM | 2 µM | 2 µM | 2.7 µM | 3.2 µM | 1400 nM | 1700 nM | 2.9 µM | 3.3 µM |
| O=S(=O)(NCCCNCc1ccc(Cl)c(Cl)c1)c1cc(C(F)(F)F)cc(C(F)(F)F)c1 | 2.7 µM | 1500 nM | 2500 nM | 1.8 µM | 2.8 µM | 2.9 µM | 5.6 µM | 2400 nM | 1400 nM | 4.7 µM | 3 µM |
| COc1ccccc1CNCCCNS(=O)(=O)c1cc(C(F)(F)F)cc(C(F)(F)F)c1 | 3.1 µM | 1500 nM | 2400 nM | 6 µM | 4.6 µM | 3.6 µM | 12 µM | 2600 nM | 1700 nM | 12 µM | 5.5 µM |
| O=S(=O)(NCCCCCCNCc1ccc(Br)cc1)c1c(Cl)cccc1Cl | 14.7 µM |  |  |  |  |  |  |  |  |  |  |
| O=S(=O)(NCCCCCCNCc1ccc(Br)cc1)c1ccccc1Cl | 13.7 µM |  |  |  |  |  |  |  |  |  |  |
| CC(C)(C)c1ccc(S(=O)(=O)NCCCCCCNCc2ccc(Br)cc2)cc1 | 2.97 µM |  |  |  |  |  |  |  |  |  |  |
